Data from patent US12551480B2, “Treatment using EYP001” (ENYO PHARMA, priority 2019, dated 2026).

Experiments:
[1] = human, in vivo
HBV (plasma HBsAg) = assay: Plasma HBsAg change from baseline in patients with chronic Hepatitis B infection, 4 weeks; format: in vivo, human; details: 400 mg QD vs 200 mg BID, chronic Hepatitis B patients (FIG. 3)
Description: FIG. 3: Plasma HBsAg (Log 10 IU/mL) change from baseline in patients with chronic Hepatitis B infection. Patients received during 4 weeks either Placebo (n=8), EYP001 200 mg BID (n=8) or EYP001 400 mg QD (n=8). Values expressed as mean; error bar is SD. * p<0.05 vs baseline.
Patients chronically infected with HBV underwent a 4-week treatment as either daily oral FXR agonist EYP001 monotherapy or placebo or entecavir (ETV) in Part A of the study (n=48) or in combination with IFN (Part B, n=23, weekly sub-cutaneous injections of pegylated IFNα2a, PEG-IFN). Overall 15 (30%) patients developed pruritus related to EYP001, a well-known TEAE with FXR agonist, the mechanism of which however is poorly understood.

[2] = Study EYP001-202 Phase 2a in NASH patients: pruritus intensity on Visual Analog Scale, safety and tolerance; format: in vivo, human
Description: Values are AUC least square means (error bars=SE). AUC=area under the concentration-time curve; BID=twice daily; QD=once daily. * p<0.05 versus Placebo.
(§1) EYP001a is an investigational agonist of the FXR, a key regulator of bile, lipid, and glucose metabolism. […] Study EYP001-202 is a Phase 2a, 2-part study conducted to determine the efficacy and safety profiles of different doses and dosing regimens of EYP001 (100 mg twice daily [BID] and 200 mg once daily [QD]) versus placebo on LFC (liver fat content) from baseline to Week 12 in patients with NASH. An interim analysis on 24 patients enrolled in Part A Safety Run-in Cohort focused on safety, tolerance and key efficacy results.
VAS (Visual Analog Score) results were the followings: 100 mg BID group (mean change from baseline ranged from 3.34 on Day 7 to 6.84 on Day 21), and the 200 mg QD group (mean change from baseline ranged from 3.03 on Day 28 to 3.47 on Day 56).
The efficacy was shown with a significant, clinically relevant LFC reduction from baseline. However, tolerance was affected due to pruritus events causing premature terminations. The BID regimen less well tolerated compared to QD regimen. In addition, a higher efficacy is associated to the QD regimen in comparison to the BID.

[3] = Study EYP001-202 Phase 2a in NASH patients: liver fat content (LFC) change from baseline to Week 12 by MRI-PDFF; format: in vivo, human
Description: FIG. 2: Absolute Liver Fat Content Change (%) from baseline assessed by MRI-PDFF in NASH patients treated during 12 weeks with EYP001 100 mg BID (n=4) or EYP001 200 mg QD (n=3) or Placebo (n=5). Values expressed as means; error bar is SE. #p=0.07 vs baseline. The ------- line corresponds to a 5% clinical meaningful reduction. Analysis of covariance (ANCOVA) model with change from baseline as the dependent variable and baseline Liver Fat Content as a covariate and treatment (pooled EYP001 and Placebo BID) and stratification factors—statin use and T2DM status at screening as factors.
as §1
The primary efficacy endpoint of LFC reduction was met.

NASH rodent model = format: in vivo
[4] = clinical trials of obeticholic acid (PBC, NASH); cited from earlier work

Row | SMILES | frequency of pruritus with QD dosing compared to BID regimens [1] | any of above Pruritus related MEDRA (% of patients) ([1]; 4 weeks) [%] | n = any of above Pruritus related MEDRA (number of patients) ([1]; 4 weeks) | none of above (% of patients without pruritus) ([1]; 4 weeks) [%] | none of above (number of patients without pruritus) ([1]; 4 weeks) | patients who developed pruritus related to EYP001 (%) ([1]; 4 weeks) | patients who developed pruritus related to EYP001 (number) ([1]; 4 weeks) | plasma HBsAg change from baseline, efficacy of regimens compared (HBV (plasma HBsAg)) | tolerance in VAS analysis (AUC over 12 weeks) ([2]; NASH patients, 200 mg QD vs 100 mg BID (FIG. 1)) | serious AEs ([2]; male and female F2-F3 NASH patients, 100 mg BID and 200 mg QD) | LFC reduction, regimens compared ([3]; 200 mg QD group compared to 100 mg BID group, 12 weeks (FIG. 2)) | LFC reduction, difference from placebo ([3]; EYP001 groups pooled (100 mg BID and 200 mg QD), baseline to Week 12, p=0.04, absolute LFC change (%) by MRI-PDFF) | effect on liver steatosis, inflammation, apoptosis and fibrosis (NASH rodent model) | pruritus rates [4]
1 | O=C(O)c1cc2c(Cl)c(N3CCN(S(=O)(=O)c4c(Cl)cccc4Cl)CC3)ccc2o1 [EYP001] | up to four times less frequent pruritus | 27 | 9 | 73 | 24 | 30 | 15 | better efficacy | better tolerance | no serious AEs | more pronounced effect | 8.62 | reduced liver steatosis, inflammation, apoptosis, and fibrosis | –
2 | CC[C@H]1[C@@H](O)[C@@H]2[C@H](CC[C@]3(C)[C@@H]([C@H](C)CCC(=O)O)CC[C@@H]23)[C@@]2(C)CC[C@@H](O)C[C@@H]12 [obeticholic acid] | – | – | – | – | – | – | – | – | – | – | – | – | – | up to 51%
